Measured values from publication PMC5399447, “Neuroprotective pentapeptide CN-105 is associated with reduced sterile inflammation and improved functional outcomes in a traumatic brain injury murine model” (Scientific Reports, 2017).

Tested on: 84 genes related to inflammatory and autoimmune processes
Test: Mouse Inflammatory Response and Autoimmunity PCR Array, whole brain
Assay type: in vivo
Experimental: Frozen, pulverized whole brain tissue was processed for RNA extraction from a separate cohort of treated and untreated injured animals on days 1 post-injury(CN-105, n = 4; vehicle, n = 3; Control(sham-operated), n = 3). Total RNA was extracted from frozen, pulverized whole brain tissue using RNeasy Lipid Tissue Mini Kit(Qiagen, Valencia, CA). RNA quantity and quality was assessed with the NanoDrop ND-1000 spectrophotometer(NanoDrop Technologies, Inc., Wilmington, DE) and by agarose gel electrophoresis. Only samples with a 260/280 ratio between 1.9–2.1, and a 260/230 ratio greater than 2.0, were further processed. First strand complementary DNA(cDNA) was generated from 2 μg total RNA using the RT[2] First strand kit(SABiosciences, Frederick, MD.)
Gene expression was measured using the Mouse Inflammatory Response and Autoimmunity PCR Array(SABiosciences, Frederick, MD), which profiles the expression of 84 genes related to inflammatory and autoimmune processes. RT-PCR was performed according to manufacturer’s instructions Quality of the cDNA and PCR efficiency was verified by housekeeping genes and RT-PCR controls included in the PCR Array.
Raw RT-PCR data were analyzed using the Web-Based PCR Array Data Analysis software(SABiosciences). ΔCt values and ΔΔCt - based fold-change were calculated from raw threshold cycle data, using beta-actin and glyceraldehyde 3-phosphate dehydrogenase(GAPDH) as internal standards for normalization. Fold changes were then normalized against sham-operated controls.

[1] = TBI + CN-105 0.05 mg/kg iv 2 h post injury, brain 24 h
[2] = TBI CN-105 vs TBI vehicle, brain 24 h post TBI

Ac-VSRRR-amide [CN-105]
Bcl6 ΔCt value, TBI-CN-105 [1]: 5.7E − 01 | C3ar1 ΔCt value, TBI-CN-105 [1]: 1.2E − 01 | C3 ΔCt value, TBI-CN-105 [1]: 1.9E − 03 | C4b ΔCt value, TBI-CN-105 [1]: 5.9E − 01 | Ccl1 ΔCt value, TBI-CN-105 [1]: 9.1E − 01 | Ccl2 ΔCt value, TBI-CN-105 [1]: 2.5E − 02 | Ccl3 ΔCt value, TBI-CN-105 [1]: 8.9E − 03 | Ccl4 ΔCt value, TBI-CN-105 [1]: 1.2E − 02 | Ccl5 ΔCt value, TBI-CN-105 [1]: 3.4E − 03 | Ccl7 ΔCt value, TBI-CN-105 [1]: 3.7E − 03 | Ccl8 ΔCt value, TBI-CN-105 [1]: 4.2E − 03 | Ccl11 ΔCt value, TBI-CN-105 [1]: 1.8E − 01 | Ccl12 ΔCt value, TBI-CN-105 [1]: 1.3E − 02 | Ccl17 ΔCt value, TBI-CN-105 [1]: 1.0E − 03 | Ccl19 ΔCt value, TBI-CN-105 [1]: 3.4E − 03 | Ccl20 ΔCt value, TBI-CN-105 [1]: 7.9E − 02 | Ccl22 ΔCt value, TBI-CN-105 [1]: 2.2E − 02 | Ccl24 ΔCt value, TBI-CN-105 [1]: 5.1E − 03 | Ccl25 ΔCt value, TBI-CN-105 [1]: 9.5E − 02 | Ccr1 ΔCt value, TBI-CN-105 [1]: 3.0E − 04 | Ccr2 ΔCt value, TBI-CN-105 [1]: 1.5E − 03 | Ccr3 ΔCt value, TBI-CN-105 [1]: 1.1E − 01 | Ccr4 ΔCt value, TBI-CN-105 [1]: 3.1E − 02 | Ccr7 ΔCt value, TBI-CN-105 [1]: 3.4E − 02 | Cd40lg ΔCt value, TBI-CN-105 [1]: 4.2E − 03 | Cd40 ΔCt value, TBI-CN-105 [1]: 2.1E − 02 | Cebpb ΔCt value, TBI-CN-105 [1]: 2.4E − 01 | Crp ΔCt value, TBI-CN-105 [1]: 7.1E − 04 | Csf1 ΔCt value, TBI-CN-105 [1]: 1.2E − 02 | Cxcl1 ΔCt value, TBI-CN-105 [1]: 1.8E − 03 | Cxcl2 ΔCt value, TBI-CN-105 [1]: 1.7E − 03 | Cxcl3 ΔCt value, TBI-CN-105 [1]: 1.6E + 00 | Cxcl5 ΔCt value, TBI-CN-105 [1]: 1.4E + 00 | Cxcl9 ΔCt value, TBI-CN-105 [1]: 2.2E − 03 | Cxcl10 ΔCt value, TBI-CN-105 [1]: 5.3E − 04 | Cxcl11 ΔCt value, TBI-CN-105 [1]: 8.8E − 03 | Cxcr4 ΔCt value, TBI-CN-105 [1]: 9.0E − 02 | Fasl ΔCt value, TBI-CN-105 [1]: 6.7E − 04 | Flt3l ΔCt value, TBI-CN-105 [1]: 7.1E − 04 | Fos ΔCt value, TBI-CN-105 [1]: 1.7E − 01 | Hdac4 ΔCt value, TBI-CN-105 [1]: 8.3E − 01 | Ifng ΔCt value, TBI-CN-105 [1]: 4.3E − 03 | Il1a ΔCt value, TBI-CN-105 [1]: 5.4E − 02 | Il1b ΔCt value, TBI-CN-105 [1]: 4.6E − 01 | Il1f10 ΔCt value, TBI-CN-105 [1]: 5.5E − 03 | Il1r1 ΔCt value, TBI-CN-105 [1]: 7.5E − 04 | Il1rap ΔCt value, TBI-CN-105 [1]: 8.2E − 04 | Il1rn ΔCt value, TBI-CN-105 [1]: 1.7E − 03 | Il6ra ΔCt value, TBI-CN-105 [1]: 1.6E − 01 | Il6 ΔCt value, TBI-CN-105 [1]: 1.8E − 03 | Il7 ΔCt value, TBI-CN-105 [1]: 5.9E − 01 | Il8ra ΔCt value, TBI-CN-105 [1]: 2.6E − 03 | Il8rb ΔCt value, TBI-CN-105 [1]: 5.4E − 03 | Il9 ΔCt value, TBI-CN-105 [1]: 1.4E − 02 | Il10rb ΔCt value, TBI-CN-105 [1]: 2.2E − 02 | Il10 ΔCt value, TBI-CN-105 [1]: 1.6E − 03 | Il18rap ΔCt value, TBI-CN-105 [1]: 6.6E − 03 | Il18 ΔCt value, TBI-CN-105 [1]: 9.6E − 03 | Il22ra2 ΔCt value, TBI-CN-105 [1]: 8.2E − 02 | Il22 ΔCt value, TBI-CN-105 [1]: 3.4E − 03 | Il23a ΔCt value, TBI-CN-105 [1]: 2.3E − 02 | Il23r ΔCt value, TBI-CN-105 [1]: 8.0E − 04 | Itgb2 ΔCt value, TBI-CN-105 [1]: 5.3E − 02 | Kng1 ΔCt value, TBI-CN-105 [1]: 8.5E − 03 | Lta ΔCt value, TBI-CN-105 [1]: 1.1E − 01 | Ltb ΔCt value, TBI-CN-105 [1]: 3.9E − 02 | Ly96 ΔCt value, TBI-CN-105 [1]: 7.7E − 02 | Myd88 ΔCt value, TBI-CN-105 [1]: 6.6E − 03 | Nfatc3 ΔCt value, TBI-CN-105 [1]: 3.2E + 00 | Nfkb1 ΔCt value, TBI-CN-105 [1]: 5.3E − 03 | Nos2 ΔCt value, TBI-CN-105 [1]: 1.6E − 01 | Nr3c1 ΔCt value, TBI-CN-105 [1]: 1.2E − 02 | Ripk2 ΔCt value, TBI-CN-105 [1]: 2.1E − 01 | Tirap ΔCt value, TBI-CN-105 [1]: 5.3E − 02 | Tlr1 ΔCt value, TBI-CN-105 [1]: 7.4E − 03 | Tlr2 ΔCt value, TBI-CN-105 [1]: 9.1E − 03 | Tlr3 ΔCt value, TBI-CN-105 [1]: 5.8E − 02 | Tlr4 ΔCt value, TBI-CN-105 [1]: 2.0E − 02 | Tlr5 ΔCt value, TBI-CN-105 [1]: 1.7E − 03 | Tlr6 ΔCt value, TBI-CN-105 [1]: 7.0E − 03 | Tlr7 ΔCt value, TBI-CN-105 [1]: 9.1E − 01 | Tnf ΔCt value, TBI-CN-105 [1]: 3.8E − 02 | Tnfsf14 ΔCt value, TBI-CN-105 [1]: 9.0E − 03 | Tollip ΔCt value, TBI-CN-105 [1]: 5.1E − 02 | Bcl6 Fold Change [2]: 921 | C3 Fold Change [2]: 1.5 | C3ar1 Fold Change [2]: −3.1 | C4b Fold Change [2]: −1.1 | Ccl1 Fold Change [2]: 1.5 | Ccl2 Fold Change [2]: −2.6 | Ccl3 Fold Change [2]: 1.5 | Ccl4 Fold Change [2]: −2.6 | Ccl5 Fold Change [2]: −1.6 | Ccl7 Fold Change [2]: −1.2 | Ccl8 Fold Change [2]: 31.2 | Ccl11 Fold Change [2]: −3.6 | Ccl12 Fold Change [2]: 64.2 | Ccl17 Fold Change [2]: −1.7 | Ccl19 Fold Change [2]: −5.2 | Ccl20 Fold Change [2]: −1.5 | Ccl22 Fold Change [2]: 60.2
